# From US20100267561A1, “HERBICIDAL PYRIDAZINONE DERIVATIVES” (priority 2007, published 2010)
# Columns and labels:
# Format in all cases: in vivo
# [1] = system: canarygrass (Phalaris minor); assay: Test B postemergence plant response; settings: for Plant response rating, Canarygrass: Postemergence
# Summary of the method: (§1)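 Scoring: 0 means no effect and 100 complete control, judged by eye against controls after 13–15 days under greenhouse conditions following postemergence application at 2–18 cm plant height.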
# [2] = system: chickweed (Stellaria media); assay: Test B postemergence plant response; settings: for Plant response rating, Chickweed: Postemergence
# Summary of the method: as §1
# [3] = system: windgrass (Apera spica-venti); assay: Test B postemergence plant response; settings: for Plant response rating, Windgrass: Postemergence
# Summary of the method: as §1
# [4] = system: winter barley (Hordeum vulgare); assay: Test B postemergence plant response; settings: for Plant response rating, Barley: Postemergence, scale 0 to 100, 0 no effect, 100 complete control
# Summary of the method: as §1
# [5] = system: Italian ryegrass (Lolium multiflorum); assay: Test C pre-/postemergence plant response
# Summary of the method: (§2)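 Scores (0 = no effect, 100 = complete control) are visual assessments made against control plants 15–25 days post-treatment in a controlled environment. Applications were preemergence and postemergence, with postemergence plants between 1- and 4-leaf stage.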
# [6] = system: annual bluegrass (Poa annua); assay: Test C pre-/postemergence plant response
# Summary of the method: as §2
# [7] = system: blackgrass (Alopecurus myosuroides); assay: Test C pre-/postemergence plant response
# Summary of the method: as §2
# [8] = system: canarygrass (Phalaris minor); assay: Test C pre-/postemergence plant response
# Summary of the method: as §2
# [9] = system: downy bromegrass (Bromus tectorum); assay: Test C pre-/postemergence plant response
# Summary of the method: as §2
# [10] = system: green foxtail (Setaria viridis); assay: Test C pre-/postemergence plant response
# Summary of the method: as §2
# [11] = system: pigweed (Amaranthus retroflexus); assay: Test C pre-/postemergence plant response
# Summary of the method: as §2
# [12] = system: spring wheat (Triticum aestivum); assay: Test C pre-/postemergence plant response
# Summary of the method: as §2
# [13] = system: wild mustard (Sinapis arvensis); assay: Test C pre-/postemergence plant response
# Summary of the method: as §2
# [14] = system: wild oat (Avena fatua); assay: Test C pre-/postemergence plant response
# Summary of the method: as §2
# [15] = system: windgrass (Apera spica-venti); assay: Test C pre-/postemergence plant response
# Summary of the method: as §2
# [16] = system: winter barley (Hordeum vulgare); assay: Test C pre-/postemergence plant response
# Summary of the method: as §2
# [17] = system: winter wheat (Triticum aestivum); assay: Test C pre-/postemergence plant response
# Summary of the method: as §2
# [18] = 8 g ai/ha, postemergence, 0-100 scale
# [19] = 31 g ai/ha, scale 0 to 100, 0 no effect, 100 complete control
# [20] = 62 g ai/ha, scale 0 to 100, 0 no effect, 100 complete control
# [21] = Postemergence, 8 g ai/ha, scale 0 to 100, 0 no effect, 100 complete control
# [22] = Postemergence, 16 g ai/ha, scale 0 to 100, 0 no effect, 100 complete control
# [23] = Postemergence, 31 g ai/ha, scale 0 to 100, 0 no effect, 100 complete control
# [24] = Postemergence, 62 g ai/ha, scale 0 to 100, 0 no effect, 100 complete control
# [25] = Preemergence, 8 g ai/ha, scale 0 to 100 (0 no effect, 100 complete control)
# [26] = Preemergence, 16 g ai/ha, scale 0 to 100 (0 no effect, 100 complete control)
# [27] = Preemergence, 31 g ai/ha, scale 0 to 100 (0 no effect, 100 complete control)
# [28] = Preemergence, 62 g ai/ha, scale 0 to 100, 0 no effect, 100 complete control
compound,measurement,setting,value
"CCc1c(C)c(-c2ccc(Cl)cc2)nn1-c1c(O)cnn(C)c1=O [Compound 26, 4-[3-(4-chlorophenyl)-5-ethyl-4-methyl-1H-pyrazol-1-yl]-5-hydroxy-2-methyl-3(2H)-pyridazinone]",Canarygrass plant response rating,[1]; [18],10
same,"Plant response rating, Canarygrass","[1]; 16 g ai/ha, scale 0 to 100",10
same,"Plant response rating, Canarygrass",[1]; [19],60
same,Chickweed plant response rating,[2]; [18],0
same,"Plant response rating, Chickweed","[2]; 16 g ai/ha, scale 0 to 100",0
same,"Plant response rating, Chickweed",[2]; [19],0
same,"Plant response rating, Chickweed",[2]; [20],0
same,Windgrass plant response rating,[3]; [18],50
same,"Plant response rating, Windgrass","[3]; 16 g ai/ha, scale 0 to 100",80
same,"Plant response rating, Windgrass",[3]; [20],95
same,Barley plant response rating,[4]; [18],0
same,"Plant response rating, Barley",[4]; 16 g ai/ha,0
same,"Plant response rating, Barley",[4]; 31 g ai/ha,0
same,"Plant response rating, Barley",[4]; 62 g ai/ha,0
same,"Plant response rating, Ryegrass, Italian",[5]; [21],70
same,"Plant response rating, Ryegrass, Italian",[5]; [22],85
same,"Plant response rating, Ryegrass, Italian",[5]; [23],95
same,"Plant response rating, Ryegrass, Italian",[5]; [24],100
same,"Plant response rating, Ryegrass, Italian",[5]; [25],15
same,"Plant response rating, Ryegrass, Italian",[5]; [26],75
same,"Plant response rating, Ryegrass, Italian",[5]; [27],100
same,"Plant response rating, Ryegrass, Italian",[5]; [28],100
same,"Plant response rating, Bluegrass",[6]; [21],0
same,"Plant response rating, Bluegrass",[6]; [22],0
same,"Plant response rating, Bluegrass",[6]; [23],0
same,"Plant response rating, Bluegrass",[6]; [24],15
same,"Plant response rating, Bluegrass",[6]; [25],0
same,"Plant response rating, Bluegrass",[6]; [26],0
same,"Plant response rating, Bluegrass",[6]; [27],0
same,"Plant response rating, Bluegrass",[6]; [28],0
same,"Plant response rating, Blackgrass",[7]; [21],50
same,"Plant response rating, Blackgrass",[7]; [22],50
same,"Plant response rating, Blackgrass",[7]; [23],70
same,"Plant response rating, Blackgrass",[7]; [24],95
same,"Plant response rating, Blackgrass",[7]; [25],20
same,"Plant response rating, Blackgrass",[7]; [26],50
same,"Plant response rating, Blackgrass",[7]; [28],75
same,"Plant response rating, Canarygrass",[8]; [21],25
same,"Plant response rating, Canarygrass",[8]; [22],75
same,"Plant response rating, Canarygrass",[8]; [23],75
same,"Plant response rating, Canarygrass",[8]; [24],100
same,"Plant response rating, Canarygrass",[8]; [25],0
same,"Plant response rating, Canarygrass",[8]; [26],0
same,"Plant response rating, Canarygrass",[8]; [27],65
same,"Plant response rating, Canarygrass",[8]; [28],70
same,"Plant response rating, Bromegrass, Downy",[9]; [21],0
same,"Plant response rating, Bromegrass, Downy",[9]; [22],0
same,"Plant response rating, Bromegrass, Downy",[9]; [23],0
same,"Plant response rating, Bromegrass, Downy",[9]; [24],0
same,"Plant response rating, Bromegrass, Downy",[9]; [25],0
same,"Plant response rating, Bromegrass, Downy",[9]; [26],0
same,"Plant response rating, Bromegrass, Downy",[9]; [27],0
same,"Plant response rating, Bromegrass, Downy",[9]; [28],20
same,"Plant response rating, Foxtail, Green",[10]; [21],90
same,"Plant response rating, Foxtail, Green",[10]; [22],95
same,"Plant response rating, Foxtail, Green",[10]; [23],95
same,"Plant response rating, Foxtail, Green",[10]; [24],98
same,"Plant response rating, Foxtail, Green",[10]; [25],0
same,"Plant response rating, Foxtail, Green",[10]; [26],0
same,"Plant response rating, Foxtail, Green",[10]; [27],75
same,"Plant response rating, Foxtail, Green",[10]; [28],100
same,"Plant response rating, Pigweed",[11]; [21],0
same,"Plant response rating, Pigweed",[11]; [22],0
same,"Plant response rating, Pigweed",[11]; [23],0
same,"Plant response rating, Pigweed",[11]; [24],20
same,"Plant response rating, Pigweed",[11]; [25],0
same,"Plant response rating, Pigweed",[11]; [26],0
same,"Plant response rating, Pigweed",[11]; [27],0
same,"Plant response rating, Pigweed",[11]; [28],20
same,"Plant response rating, Wheat, Spring",[12]; [21],10
same,"Plant response rating, Wheat, Spring",[12]; [22],10
same,"Plant response rating, Wheat, Spring",[12]; [23],30
same,"Plant response rating, Wheat, Spring",[12]; [24],30
same,"Plant response rating, Wheat, Spring",[12]; [25],0
same,"Plant response rating, Wheat, Spring",[12]; [26],0
same,"Plant response rating, Wheat, Spring",[12]; [27],25
same,"Plant response rating, Wheat, Spring",[12]; [28],25
same,"Plant response rating, Mustard, Wild",[13]; [21],0
same,"Plant response rating, Mustard, Wild",[13]; [22],0
same,"Plant response rating, Mustard, Wild",[13]; [25],0
same,"Plant response rating, Mustard, Wild",[13]; [26],0
same,"Plant response rating, Mustard, Wild",[13]; [27],0
same,"Plant response rating, Mustard, Wild",[13]; [28],0
same,"Plant response rating, Oat, Wild",[14]; [21],70
same,"Plant response rating, Oat, Wild",[14]; [22],98
same,"Plant response rating, Oat, Wild",[14]; [23],98
same,"Plant response rating, Oat, Wild",[14]; [24],100
same,"Plant response rating, Oat, Wild",[14]; [25],0
same,"Plant response rating, Oat, Wild",[14]; [26],15
same,"Plant response rating, Oat, Wild",[14]; [27],65
same,"Plant response rating, Oat, Wild",[14]; [28],75
same,"Plant response rating, Windgrass",[15]; [21],0
same,"Plant response rating, Windgrass",[15]; [22],0
same,"Plant response rating, Windgrass",[15]; [23],20
same,"Plant response rating, Windgrass",[15]; [24],65
same,"Plant response rating, Windgrass",[15]; [25],30
same,"Plant response rating, Windgrass",[15]; [26],30
same,"Plant response rating, Windgrass",[15]; [27],98
same,"Plant response rating, Windgrass",[15]; [28],100
same,"Plant response rating, Barley, Winter",[16]; [21],0
same,"Plant response rating, Barley, Winter",[16]; [22],0
same,"Plant response rating, Barley, Winter",[16]; [23],10
same,"Plant response rating, Barley, Winter",[16]; [24],40
same,"Plant response rating, Barley, Winter",[16]; [25],0
same,"Plant response rating, Barley, Winter",[16]; [26],0
same,"Plant response rating, Barley, Winter",[16]; [27],10
same,"Plant response rating, Barley, Winter",[16]; [28],10
same,"Plant response rating, Wheat, Winter",[17]; [21],0
same,"Plant response rating, Wheat, Winter",[17]; [22],0
same,"Plant response rating, Wheat, Winter",[17]; [23],30
same,"Plant response rating, Wheat, Winter",[17]; [24],35
same,"Plant response rating, Wheat, Winter",[17]; [25],0
same,"Plant response rating, Wheat, Winter",[17]; [26],0
same,"Plant response rating, Wheat, Winter",[17]; [27],0
same,"Plant response rating, Wheat, Winter",[17]; [28],25
